These results are taken from PubChem BioAssay AID1259407 (Chemical Carcinogenesis Research Information System (CCRIS), 2018).

Calls of active or inactive are those of the source. The rule behind the calls is not given here. *1 amine or outer side, *2 acyl side, *3 side chain or, on linkers, in order; H or OH if unused. Where a SMILES comes first, the peptide text is derived from it. Bridges are numbered along the chain shown (N, C = ends). Roman numbers before positions name the chains, in order. [ ]: non-standard residue; d: D form. Actinocin(9to1) = Cc1c2oc3c(C)ccc(C(=O)[*:1])c3nc-2c(C(=O)[*:2])c(N)c1=O; NMeV = CN[C@H](C(=O)O)C(C)C; Sar = CNCC(=O)O

The test system of the data set is CCRIS mutagenicity, Ames/micronucleus/aberration tests. Put plainly: CCRIS mutagenicity studies.
The mark [1] stands for this setting: Test System: AMES SALMONELLA TYPHIMURIUM, Strain/Indicator: TA98, Metabolic Activation: NONE, Method: STANDARD PLATE.
Setting [2] is: Test System: AMES SALMONELLA TYPHIMURIUM, Strain/Indicator: TA100, Metabolic Activation: NONE, Method: PREINCUBATION
[3] abbreviates: Test System: AMES SALMONELLA TYPHIMURIUM, Strain/Indicator: TA100, Metabolic Activation: NONE, Method: STANDARD PLATE.
The mark [4] stands for this setting: Test System: AMES SALMONELLA TYPHIMURIUM, Strain/Indicator: TA1537, Metabolic Activation: NONE, Method: STANDARD PLATE.

On to `c1ccc2c(c1)cc1c3c2ccc2cccc(c23)C2OC12` (stereo unspecified), for which the mutagenic call (Test System: AMES SALMONELLA TYPHIMURIUM, Strain/Indicator: TA98, Metabolic Activation: NONE, Method: HOST-MEDIATED) is “inactive; negative”; the mutagenic call under setting [1] was “active; positive”; the mutagenic call (Test System: AMES SALMONELLA TYPHIMURIUM, Strain/Indicator: TA98, Metabolic Activation: RAT, LIVER, S-9, KC500 OR PHENOBARBITAL, Method: LIQUID SUSPENSION) is “active; positive”; the mutagenic call (Test System: AMES SALMONELLA TYPHIMURIUM, Strain/Indicator: TA100, Metabolic Activation: MICROSOMAL EPOXIDE HYDROLASE, Method: PREINCUBATION) is “active; positive”; the mutagenic call (Test System: AMES SALMONELLA TYPHIMURIUM, Strain/Indicator: TA100, Metabolic Activation: NONE, Method: HOST-MEDIATED) was “inactive; negative”; the mutagenic call under setting [2] is “active; positive”. For the same molecule, the mutagenic call under setting [3] was “active; positive”; the mutagenic call (Test System: AMES SALMONELLA TYPHIMURIUM, Strain/Indicator: TA100, Metabolic Activation: RAT, LIVER, S-9, KC500 OR PHENOBARBITAL, Method: LIQUID SUSPENSION) was “active; positive”; the mutagenic call under setting [4] was “active; positive”; the mutagenic call (Test System: AMES SALMONELLA TYPHIMURIUM, Strain/Indicator: TA1538, Metabolic Activation: NONE, Method: HOST-MEDIATED) was “inactive; negative”; the mutagenic call (Test System: AMES SALMONELLA TYPHIMURIUM, Strain/Indicator: TA1538, Metabolic Activation: NONE, Method: STANDARD PLATE) was “active; positive”; the mutagenic call (Test System: CHINESE HAMSTER V-79, Strain/Indicator: V-79/6-THIOGUANINE, Metabolic Activation: NONE, Method: REPLATING) is “active; positive”. Further, the mutagenic call was “active; positive” (Test System: CHINESE HAMSTER V-79, Strain/Indicator: V-79/6-THIOGUANINE, Metabolic Activation: NONE, Method: STANDARD PLATE); “active; positive” (Test System: CHINESE HAMSTER V-79, Strain/Indicator: V-79/8-AZAGUANINE, Metabolic Activation: NONE, Method: STANDARD PLATE); “active; positive” (Test System: CHINESE HAMSTER V-79, Strain/Indicator: V-79/OUABAIN, Metabolic Activation: NONE, Method: STANDARD PLATE); “active; positive” (Test System: E. COLI, Strain/Indicator: WP2UVRA, Metabolic Activation: NONE, Method: STANDARD PLATE); “active; positive” (Test System: UDS HUMAN CELLS, Strain/Indicator: THY INCORP (NON-S-PHASE), Metabolic Activation: NONE, Method: LIQUID SCINTILLATION COUNTING).
As to `C1COC1`, the mutagenic call is “inactive; negative” (Test System: AMES SALMONELLA TYPHIMURIUM, Strain/Indicator: TA97, Metabolic Activation: HAMSTER, LIVER, S-9, AROCLOR 1254 (30%), Method: PREINCUBATION); “inactive; negative” (Test System: AMES SALMONELLA TYPHIMURIUM, Strain/Indicator: TA97, Metabolic Activation: NONE, Method: PREINCUBATION); “inactive; negative” (Test System: AMES SALMONELLA TYPHIMURIUM, Strain/Indicator: TA97, Metabolic Activation: RAT, LIVER, S-9, AROCLOR 1254 (30%), Method: PREINCUBATION); “inactive; negative” (Test System: AMES SALMONELLA TYPHIMURIUM, Strain/Indicator: TA98, Metabolic Activation: HAMSTER, LIVER, S-9, AROCLOR 1254 (30%), Method: PREINCUBATION); “inactive; negative” (Test System: AMES SALMONELLA TYPHIMURIUM, Strain/Indicator: TA98, Metabolic Activation: NONE, Method: PREINCUBATION); “inactive; negative” (Test System: AMES SALMONELLA TYPHIMURIUM, Strain/Indicator: TA98, Metabolic Activation: RAT, LIVER, S-9, AROCLOR 1254 (30%), Method: PREINCUBATION). Besides, the mutagenic call (Test System: AMES SALMONELLA TYPHIMURIUM, Strain/Indicator: TA100, Metabolic Activation: HAMSTER, LIVER, S-9, AROCLOR 1254 (30%), Method: PREINCUBATION) was “inactive; negative”; the mutagenic call under setting [2] was “inactive; negative”; the mutagenic call (Test System: AMES SALMONELLA TYPHIMURIUM, Strain/Indicator: TA100, Metabolic Activation: RAT, LIVER, S-9, AROCLOR 1254 (30%), Method: PREINCUBATION) was “inactive; negative”; the mutagenic call (Test System: AMES SALMONELLA TYPHIMURIUM, Strain/Indicator: TA1535, Metabolic Activation: HAMSTER, LIVER, S-9, AROCLOR 1254 (10 OR 30%), Method: PREINCUBATION) is “active; positive”; the mutagenic call (Test System: AMES SALMONELLA TYPHIMURIUM, Strain/Indicator: TA1535, Metabolic Activation: NONE, Method: PREINCUBATION) was “inactive; negative”; the mutagenic call (Test System: AMES SALMONELLA TYPHIMURIUM, Strain/Indicator: TA1535, Metabolic Activation: RAT, LIVER, S-9, AROCLOR 1254 (10 OR 30%), Method: PREINCUBATION) is “active; positive”. Besides, the mutagenic call runs as follows: (Test System: AMES SALMONELLA TYPHIMURIUM, Strain/Indicator: TA1537, Metabolic Activation: HAMSTER, LIVER, S-9, AROCLOR 1254 (30%), Method: PREINCUBATION) “inactive; negative”; (Test System: AMES SALMONELLA TYPHIMURIUM, Strain/Indicator: TA1537, Metabolic Activation: NONE, Method: PREINCUBATION) “inactive; negative”; (Test System: AMES SALMONELLA TYPHIMURIUM, Strain/Indicator: TA1537, Metabolic Activation: RAT, LIVER, S-9, AROCLOR 1254 (30%), Method: PREINCUBATION) “inactive; negative”.
As for `Cc1c2oc3c(C)ccc(C(=O)N[C@@H]4C(=O)N[C@H](C(C)C)C(=O)N5CCC[C@H]5C(=O)N(C)CC(=O)N(C)[C@@H](C(C)C)C(=O)O[C@@H]4C)c3nc-2c(C(=O)N[C@@H]2C(=O)N[C@H](C(C)C)C(=O)N3CCC[C@H]3C(=O)N(C)CC(=O)N(C)[C@@H](C(C)C)C(=O)O[C@@H]2C)c(N)c1=O` (I: T[dV]P[Sar][NMeV] / II: T[dV]P[Sar][NMeV]; ester I:1-I:C, II:1-II:C; linker I:N-II:N via Actinocin(9to1)), the mutagenic call (End Point: IN VITRO MICRONUCLEUS, Test System: CHO CELLS, Metabolic Activation: RAT, LIVER, S-9, AROCLOR 1254) is “active; positive”; the mutagenic call (End Point: IN VITRO MICRONUCLEUS, Test System: V79 CELLS, Metabolic Activation: NONE) was “active; positive”; the mutagenic call under setting [1] is “inactive; negative”; the mutagenic call under setting [3] was “inactive; negative”; the mutagenic call (Test System: AMES SALMONELLA TYPHIMURIUM, Strain/Indicator: TA102, Metabolic Activation: NONE, Method: STANDARD PLATE) is “inactive; negative”; the mutagenic call under setting [4] was “inactive; negative”. Also, the mutagenic call was “inactive; negative” (Test System: E. COLI, Strain/Indicator: WP2 (HCR), Metabolic Activation: NONE, Method: STANDARD PLATE) and “active; positive” (Test System: MOUSE LYMPHOMA, Strain/Indicator: L5178Y (TK+/TK-), Metabolic Activation: NONE, Method: SUSPENSION/PLATE).
As for `COC(=O)C1(C(N)=O)OC1(C)C(O)C(C)C` (stereo unspecified), the mutagenic call (Test System: AMES SALMONELLA TYPHIMURIUM, Strain/Indicator: TA98, Metabolic Activation: NONE, Method: DISK ASSAY) was “inactive; negative”; the mutagenic call under setting [1] is “inactive; negative”; the mutagenic call (Test System: AMES SALMONELLA TYPHIMURIUM, Strain/Indicator: TA98, Metabolic Activation: RAT, LIVER, S-9, AROCLOR 1254, Method: DISK ASSAY) was “inactive; negative”; the mutagenic call (Test System: AMES SALMONELLA TYPHIMURIUM, Strain/Indicator: TA98, Metabolic Activation: RAT, LIVER, S-9, AROCLOR 1254, Method: STANDARD PLATE) was “active; positive”; the mutagenic call under setting [3] was “inactive; negative”; the mutagenic call (Test System: AMES SALMONELLA TYPHIMURIUM, Strain/Indicator: TA100, Metabolic Activation: RAT, LIVER, S-9, AROCLOR 1254, Method: STANDARD PLATE) is “inactive; negative”.
